In patent US20050208037A1, “Thioredoxin increases redox-cycling of anticancer agents thereby sensitizes cancer cells to apoptosis” (Board of Regents, The University of Texas System, priority 2003, published 2005):
Where a name gives a salt, the structure may show the parent alone.

Assays:
[1] = tested on: Trx9 cells (MCF-7 clones expressing thioredoxin); assay: Superoxide production in cell lysate by SOD-inhibitable reduction of ferricytochrome c; format: biochemical, human; conditions: for inhibition of SOD-inhibitable rate of O2— generation: inhibitor 50 μM, then 10 μM doxorubicin
Protocol: Determination of superoxide production by reduction of ferricytochrome c. Superoxide production was measured as superoxide dismutase (SOD) inhibitable reduction of ferricytochrome c (Azzi et al. 1975). Cells were sonicated in potassium phosphate buffer (0.05M, pH 7.8 plus 1 mM EDTA), centrifuged and the supernatant was used for the assay. To determine the superoxide generation in the cell lysate, the supernatant was incubated with 10 μM drug and 10 μM cytochrome c, with or without 1U SOD to determine SOD inhibitable rate. The specificity of thioredoxin mediated superoxide generation in the supernatant was detected by pre-incubation of cell lysates with anti-human thioredoxin antibody (American Diagnostica, Greenwich, Conn.) for 15 min. All reactions were performed in triplicate. The reduction of ferricytochrome c was measured both in kinetic and end point mode with path check on for 1 hr duration at a wavelength of 550 nm using a Spectramax 190 plate reader (Molecular Devices). Total protein was quantified using Bradford protein assay (Biorad) and the superoxide generation was determined per milligram of protein in the extracts.

p53 in Trx9 cells [2] = assay: Western blotting of p53 and phospho-p53 (ser-15); format: cell-based, human; conditions: daunomycin treated Trx9 cells, 4 hr
Text: Western blotting. Equal amounts of protein were resolved on 10% SDS-polyacrylamide gel electrophoresis, and transferred to nitrocellulose membrane (Hybond-ECL, Amersham Pharmacia Biotech) immunoblotted with anti-p53 or anti-p53 phospho ser-15 (Cell Signaling Technology, Beverly, Mass.) and visualized using Lumiglo system with antirabbit conjugated HRP. For cytochrome c determination the cytosolic protein was resolved on 15% SDS-PAGE and immunoblotted using anti-cytochrome c (BD Pharmingen, San Diego, Calif.) and visualized using the ECL system (Amersham Pharmacia Biotech, Piscataway, N.J.) and anti-mouse IgG conjugated HRP (Santa Cruz Biotech, California).

p53 in Trx9 cells [3] = assay: Electrophoretic mobility shift assay of p53 DNA binding; format: cell-based, human; conditions: daunomycin treated Trx9 cells, 4 hr
Protocol: Nuclear Extract preparation. Nuclear extract was prepared as described previously (Das, 2001). […] The extracts were then centrifuged at 14,000 rpm for 25 min and the supernatant was saved as nuclear extract in −70° C. for further experiments. Protein was quantified using Bradford protein assay (Biorad).
Electrophoretic Mobility shift assay (EMSA). For the EMSA the p53 consensus oligonucleotide was obtained from Genosys 5′-[…]-3′ (SEQ ID NO:9) and end labeled using T4 Poly nucleotide kinase (New England Biolabs, Beverly, Mass.) and [γ-^32P] ATP (Perkin Elmer, Boston, Mass.) in 10× kinase buffer supplied with the enzyme. […] The nuclear protein was separated by electrophoresis using 4% native polyacrylamide gel and 0.25× of TBE (Tris-Borate-EDTA) as running buffer. The gels were dried and exposed to Kodax Biomax X-ray film overnight.

[4] = tested on: Trx9 cells (MCF-7 clones expressing thioredoxin); assay: Flow cytometry, apoptosis as sub-G1 peak (propidium iodide); format: cell-based, human; conditions: daunomycin 1 μM, 16 h
Protocol: (§1) Flow cytometry. […] The cells were washed again with PBS containing 1% FBS and resuspended in 500 μl of PBS followed by fixing in 7.5 ml of ice-cold ethanol 70% added dropwise while vortexing and stored in −20° C. overnight. After two washes with PBS containing 1% FBS and resuspended in same buffer and stained with Propidium Iodide 10 μg/ml (Sigma, St. Louis, Mo.) in the presence of RNase 250 μg/ml at 37° C. for 30 min in dark. Stained cells were analyzed using Epics Elite ESP Coulter, using argon laser at 488 nm wavelength. Flow cytometric results were analyzed and apoptosis was defined as ‘sub G1’ peak (Gutierrez, 2000) using Multicycle software.

[5] = tested on: vector cells (vector-only MCF-7); assay: as above; format: cell-based, human; conditions: daunomycin 1 μM, 16 h
Protocol: as §1

[6] = tested on: Trx9 cells (MCF-7 clones expressing thioredoxin); assay: Cell proliferation assay by BrdU ELISA; format: cell-based, human; conditions: daunomycin 1 μM, 16 h
Protocol: (§2) Cell proliferation assay. Cell proliferation assay by BrdU ELISA kit was purchased from Roche Molecular Biochemicals (Indianapolis, Ind.). For this assay cells were seeded to a final density of 5000 per well in 96 well plates and allowed to attach overnight, […] BrdU for 4-6 hr, and detected using Tetramethylbenzedine as substrate with Anti-BrdU POD at 370 nm and reference wavelength 492 nm in Spectramax 190 plate reader.

[7] = tested on: vector cells (vector-only MCF-7); assay: Cell proliferation assay by BrdU ELISA; format: cell-based, human; conditions: daunomycin 1 μM, 16 h
Protocol: as §2

[8] = tested on: Trx9 cells (MCF-7 clones expressing thioredoxin); assay: XTT cytotoxicity assay; format: cell-based, human; conditions: percent control of untreated cells
Protocol: (§3) XTT assay. Cytotoxicity was estimated using XTT based in vitro toxicology assay kit, (Sigma Chemical Co.). This assay is based on the metabolic capacity of viable cells; the mitochondrial dehydrogenases convert XTT yielding orange formazan crystal soluble in aqueous media that is estimated spectrophotmetrically at 450 nm and a reference wavelength at 690. The assay was performed 48 hr post treatment; cells were washed and XTT added in media free of serum and phenol red, incubated for 2-4 hr and analyzed in Spectramax 190 plate reader.

[9] = tested on: vector cells (vector-only MCF-7); assay: XTT cytotoxicity assay; format: cell-based, human; conditions: percent control of untreated cells
Protocol: as §3

[10] = tested on: Trx9 cells (MCF-7 clones expressing thioredoxin); assay: Colony formation assay (clonogenic survival); format: cell-based, human; conditions: 0.1 μM daunomycin, end of 14 days
Protocol: (§4) Colony formation assay. For determination of clonogenic survival, the cells were seeded to a final density of 1×10^6 in 100 mm dishes, allowed to attach overnight, and the following day treated with the appropriate concentration of the drug for 48 hr. The cells were trypsinized, counted and seeded to final density of 25,000 viable cells in 100 mm dishes and allowed to grow for 14 days followed by washing and staining with crystal violet.

[11] = tested on: vector cells (vector-only MCF-7); assay: Colony formation assay (clonogenic survival); format: cell-based, human; conditions: 0.1 μM daunomycin, end of 14 days
Protocol: as §4

[12] = tested on: Trx9 cells (MCF-7 clones expressing thioredoxin); assay: TUNEL assay; format: cell-based, human; conditions: Trx9 compared to vector cells; daunomycin 1 μM, 16 h
Text: TUNEL assay. Apoptotic cells were detected using In Situ Cell Death detection, POD kit (Roche Molecular Biochemicals, Indianapolis, Ind.). Apoptotic DNA strand breaks were identified by labeling 3′-OH termini with fluorescein-dUTP using Terminal deoxy Transferase as per manufacturer's protocol. For this assay cells were allowed to adhere overnight in chambered glass slides (Nunc) to a final density of 25,000 cells per well. Followed by treatment with the appropriate concentration of drugs the media was removed and washed twice with PBS containing 1% BSA and the cells fixed in 4% paraformaldehyde for 30 min and washed with PBS containing 1% BSA. The cells were then permeabilized with 0.1% Triton X-100 in 0.1% sodium citrate for 2 min on ice and washed twice with PBS containing 1% BSA. The labeling reaction was performed using FITC labeled dUTP along with other nucleotides by terminal deoxynucleotidyl transferase for 60 mins in dark at 37° C. in humidified chamber. The cells were washed with PBS-1% BSA, mounted onto a slide, and the incorporated fluorescein-dUTP was analyzed using Nikon laser confocal microscope.

[13] = tested on: Trx9 cells (MCF-7 clones expressing thioredoxin); assay: Cytochrome c release (cytosolic extract, western blotting); format: cell-based, human; conditions: Trx9 compared to vector-only cells; daunomycin 1 μM, 16 h
Protocol: Preparation of cytosolic extract by sub cellular fractionation. Cytosolic preparation was done as described earlier (Yang et al., 1997). Briefly, cells were harvested by centrifugation (600×g) and washed once with ice cold PBS for 10 min at 4° C. The cell pellets were resuspended in five volumes of fractionation buffer (250 mM sucrose containing 20 mM HEPES-KOH, 10 mM KCl, 1.5 mM each of sodium-EDTA and sodium- EGTA, 1 mM MgCl2, 1 mM dithiothreitol, 0.1 mM PMSF and cocktail of protease inhibitors) and incubated on ice for 30 min. Cells were then homogenized using a dounce homogenizer with type B pestle and centrifuged twice at 800×g for 10 min at 4° C. The supernatant was centrifuged at 10,000×g for 15 min at 4° C., and the resulting supernatant was then transferred to fresh tube and centrifuged at 100,000×g […] for 1 hr at 4° C. The final supernatant obtained in this centrifugation was designated as cytosolic extract and was stored in −70° C. for further analysis.
Western blotting. Equal amounts of protein were resolved on 10% SDS-polyacrylamide gel electrophoresis, and transferred to nitrocellulose membrane (Hybond-ECL, Amersham Pharmacia Biotech) immunoblotted with anti-p53 or anti-p53 phospho ser-15 (Cell Signaling Technology, Beverly, Mass.) and visualized using Lumiglo system with antirabbit conjugated HRP. […]

[14] = molecular target: T1, E. coli thioredoxin reductase-thioredoxin system (Escherichia coli, UniProt P0A9P4); assay: Superoxide detection by cytochrome c reduction assay with thioredoxin system; format: biochemical
T1 construct: purchased American Diagnostica Inc (thioredoxin reductase); Promega Inc (thioredoxin)
T1 sequence (P0A9P4 2-321): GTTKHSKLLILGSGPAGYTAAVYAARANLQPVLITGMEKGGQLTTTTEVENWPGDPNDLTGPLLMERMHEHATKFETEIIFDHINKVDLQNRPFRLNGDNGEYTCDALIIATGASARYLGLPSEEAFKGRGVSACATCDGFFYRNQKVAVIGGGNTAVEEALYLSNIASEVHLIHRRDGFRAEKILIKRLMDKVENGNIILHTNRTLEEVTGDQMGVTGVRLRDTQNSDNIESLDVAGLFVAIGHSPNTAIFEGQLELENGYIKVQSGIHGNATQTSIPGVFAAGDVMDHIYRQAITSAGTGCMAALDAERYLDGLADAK
Protocol: Superoxide detection by cytochrome c reduction assay. Superoxide (O2—) generated in the process of redox-cycling was detected by SOD inhibitable rate of ferricytochrome c reduction (Das et al., 2000). The reaction mixture contained 0.05 M potassium phosphate buffer (pH 7.78), 1 mM EDTA, 10 μM cytochrome c and 200 μM NADPH. […] The rate of […] of cytochrome c was measured at 550 nm for 0-15 minutes using Shimadzu UV-1601PC in kinetic mode. Reaction blank contained potassium phosphate buffer, cytochrome c and NADPH with or without SOD, and controls included 0.35-0.7 μg TR and /or Trx in buffer. All reactions were performed in triplicate.

A549 cells = assay: ROS detection by DCF-DA fluorescence; format: cell-based, human; conditions: daunomycin only (1 μM)
Protocol: In situ detection of superoxide by fluorescent probe DiCarboxyFluorescein-DiAcetate (DCF-DA). […] Cells were pre-incubated with 20 μM DCF-DA (Sigma, St. Louis, Mo.) in 20 mM Hepes in Phosphate Buffered Saline (PBS) containing bovine serum albumin (BSA, 5 mg/ml) at 37° C. for 30 min followed by washing with PBS buffer, and the drug was added and observed for 10-15 min in a Nikon laser confocal microscope using laser beam wavelength 488 nm analyzed by Ultraview software (Perkin-Elmer).

[15] = cited from earlier work

Nc1ncnc2c1ncn2[C@@H]1O[C@H](COP(=O)(O)O)[C@@H](O)[C@H]1OP(=O)(O)O [PAMP, 2′-Phospho-5′-AMP]
inhibition of SOD-inhibitable rate of O2— generation ([1]; Trx9 cells): 76%

c1ccc2c(c1)[I+]c1ccccc1-2 [DPIC, dipheyleneiodonium]
effect on generation of O2— ([1]; Trx9 cells, DPIC 25 or 50 μM pre-incubation, 10 μM doxorubicin): inhibited generation of O2—
effect on p53 ser-15 phosphorylation (p53 in Trx9 cells [2]): abolished
effect on p53 DNA binding (p53 in Trx9 cells [3]; DPIC 50 μM): abolished

COc1cccc2c1C(=O)c1c(O)c3c(c(O)c1C2=O)C[C@@](O)(C(C)=O)C[C@@H]3O[C@H]1C[C@H](N)[C@H](O)[C@H](C)O1 [daunomycin, 5,12-Naphthacenedione, (8S-cis)-8-acetyl-10-[(3-amino-2,3,6-trideoxy-a-L-lyxo-hexanopyranosyl)oxy]-7,8,9,10-tetrahydro-6,8,11-trihydroxy-10-methoxy-, hydrochloride]
percentage of apoptotic cells (sub-G1) [4]: 23%
percentage of apoptotic cells (sub-G1) [5]: 6%
level of BrdU incorporated [6]: 60%
level of BrdU incorporated [7]: 76%
percentage of cell death (XTT) [8]: 48%
percentage of cell death (XTT) [9]: 16%
clonogenic survival [10]: failed to propagate into colonies
clonogenic survival [11]: able to propagate into several colonies
TUNEL-positive cells [12]: higher number of TUNEL positive Trx9 cells
cytochrome c release [13]: increased cytochrome c release
O2— production ([1]; Trx9 compared to vector-transfected cells, 10 μM drug): significantly higher level of O2—
levels of O2— generated ([14]; drug 10 μM with thioredoxin reductase alone): significantly higher levels of O2—
SOD inhibitable rate of ferricytochrome c reduction ([14]; drug alone, 10 μM): did not show significant level
ROS generation (DCF-DA) (A549 cells): ROS generation was increased
secreted into the bile ([15]; in vivo): ~40%
elimination half-life ([15]; intravenous): about 19 hr
absorption ([15]; oral): poor

Nn1nnc2ccccc21 [ABT, 1-Aminobenzotriazole]
inhibition of SOD-inhibitable rate of O2— generation ([1]; Trx9 cells): 54%

O=C(O)c1ccc(/C2=C3\C=CC(=N3)/C(c3ccc(C(=O)O)cc3)=c3/cc/c4[n]3[Mn]([Cl])[n]3c2ccc3/C(c2ccc(C(=O)O)cc2)=C2/C=CC(=N2)\C=4c2ccc(C(=O)O)cc2)cc1 [MnTBAP]
effect on p53 ser-15 phosphorylation (p53 in Trx9 cells [2]): no appreciable decrease
reduction in p53 DNA binding activity (densitometric analysis) (p53 in Trx9 cells [3]): about 30%

COc1cccc2c1C(=O)c1c(O)c3c(c(O)c1C2=O)C[C@@](O)([C@H](C)O)C[C@@H]3O[C@H]1C[C@H](N)[C@H](O)[C@H](C)O1 [daunorubicinol]
half-life of active metabolite ([15]; metabolite of daunorubicin): about 27 hr
